Among the data in ChEMBL document CHEMBL5233228, “The cell division protein FtsZ as a cellular target to hit cystic fibrosis pathogens” (Eur J Med Chem, 2020) are IC50, MIC and inhibition values, retold here.

Converted amounts (≈) assume the structure as drawn.

Test [1] concerns the target T1, Cell division protein FtsZ (Staphylococcus aureus, UniProt P0A031).
T1 sequence (P0A031 whole entry): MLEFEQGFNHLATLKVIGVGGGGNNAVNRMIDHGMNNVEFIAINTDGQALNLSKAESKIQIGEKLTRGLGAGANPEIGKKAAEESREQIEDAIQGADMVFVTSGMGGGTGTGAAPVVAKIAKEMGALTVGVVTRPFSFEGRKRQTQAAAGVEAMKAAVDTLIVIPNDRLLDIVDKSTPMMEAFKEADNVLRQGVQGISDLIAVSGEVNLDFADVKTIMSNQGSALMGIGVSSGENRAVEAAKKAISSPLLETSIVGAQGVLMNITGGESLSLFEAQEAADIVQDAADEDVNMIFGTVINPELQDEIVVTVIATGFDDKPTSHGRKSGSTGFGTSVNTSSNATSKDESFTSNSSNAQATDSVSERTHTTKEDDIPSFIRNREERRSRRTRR
The test can be described thus: Inhibition of Staphylococcus aureus recombinant FTsZ preincubated for 10 mins followed by compound addition measured after 30 mins by Cytophos phosphate assay.

For test [2], the system named is Staphylococcus aureus. The experiment in a line: Antibacterial activity against Meticillin-Sensitive Staphylococcus aureus assessed as bacterial growth inhibtion incubated for 14 to 16 hrs. The format is functional. The following applies: time 14-16 hrs.
In test [3] the test system is Staphylococcus aureus. The test can be described thus: Antibacterial activity against Meticillin-Resistant Staphylococcus aureus assessed as bacterial growth inhibtion incubated for 14 to 16 hrs. Type of test: functional. The following applies: time 14-16 hrs.
Test [4] deals with Staphylococcus aureus. The experiment in a line: Antibacterial activity against Meticillin-Sensitive Staphylococcus aureus assessed as bacterial growth inhibtion. The format is functional.
For test [5], the system named is Staphylococcus aureus. The test can be described thus: Antibacterial activity against Meticillin-Resistant Staphylococcus aureus assessed as bacterial growth inhibtion. The format is functional.
Test [6] has as its target T2, Cell division protein FtsZ (Staphylococcus aureus) (UniProt P0A031).
T2 sequence (whole entry): T1 sequence (P0A031 whole entry)
The experiment in a line: Inhibition of Staphylococcus aureus recombinant FTsZ at 50 uM by GTPase activity assay relative to control.

For test [7], the system named is Staphylococcus aureus. The test can be described thus: Antibacterial activity against Staphylococcus aureus assessed as bacterial growth inhibition. The format is functional.
The next test has as its system Macrococcus caseolyticus. The experiment in a line: Antibacterial activity against Macrococcus caseolyticus assessed as bacterial growth inhibition. Type of test: functional. As to conditions: Macrococcoides caseolyticum.
For the next test, the system named is Escherichia coli. The experiment in a line: Antibacterial activity against Escherichia coli assessed as bacterial growth inhibition. The format is functional.
The next test relates to Pseudomonas aeruginosa. The experiment in a line: Antibacterial activity against Pseudomonas aeruginosa assessed as bacterial growth inhibition. Type of test: functional.
Test [8] relates to Staphylococcus aureus. The experiment in a line: Antibacterial activity against Meticillin-Sensitive Staphylococcus aureus assessed as bacterial growth inhibtion incubated for 4 to 6 hrs by broth microdilution method. Type of test: functional. As to conditions: time 4-6 hrs.
Test [9] concerns Staphylococcus aureus. The experiment in a line: Antibacterial activity against Meticillin-Sensitive Staphylococcus aureus assessed as bacterial growth inhibtion incubated for 18 hrs by broth microdilution method. Type of test: functional. On the technique in general: Broth dilution looks for growth in wells or tubes with falling amounts of substance.
The subject of test [10] is Staphylococcus aureus. The test can be described thus: Antibacterial activity against Meticillin-Resistant Staphylococcus aureus assessed as bacterial growth inhibtion incubated for 18 hrs by broth microdilution method. Type of test: functional.
Test [11] in a line: Inhibition of FTsZ (unknown origin). The arrangement: […].
Test [12] deals with T3, Cell division protein FtsZ (Escherichia coli K-12, UniProt P0A9A6).
T3 sequence (P0A9A6 whole entry): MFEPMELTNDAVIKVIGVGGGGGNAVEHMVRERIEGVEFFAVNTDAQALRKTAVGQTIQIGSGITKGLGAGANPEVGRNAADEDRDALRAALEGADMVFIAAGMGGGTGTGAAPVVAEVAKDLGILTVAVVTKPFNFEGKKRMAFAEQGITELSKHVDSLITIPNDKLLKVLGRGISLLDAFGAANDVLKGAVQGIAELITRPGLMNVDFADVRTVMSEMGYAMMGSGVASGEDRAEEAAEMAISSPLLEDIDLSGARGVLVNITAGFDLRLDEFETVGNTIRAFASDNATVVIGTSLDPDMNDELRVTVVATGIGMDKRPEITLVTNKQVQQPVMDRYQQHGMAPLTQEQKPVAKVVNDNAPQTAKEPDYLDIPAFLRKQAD
The test can be described thus: Inhibition of Escherichia coli recombinant FTsZ incubated for 10 mins in presence of GTP by spectrofluorimeter analysis.

Test [13] has as its system Staphylococcus aureus. The experiment in a line: Antibacterial activity against Meticillin-Sensitive Staphylococcus aureus assessed as bacterial growth inhibtion by resazurin colorimetric assay. The format is functional. (In general: Resazurin is reduced to fluorescent resorufin, in cell work by metabolically active cells.)
For test [14], the system named is Staphylococcus aureus. The test can be described thus: Antibacterial activity against Meticillin-Resistant Staphylococcus aureus assessed as bacterial growth inhibtion by resazurin colorimetric assay. Type of test: functional.
The next test has as its system Burkholderia cepacia. The experiment in a line: Antibacterial activity against Burkholderia cepacia assessed as bacterial growth inhibition by checkerboard assay. The format is functional.
The subject of test [15] is Staphylococcus aureus. The test can be described thus: Antibacterial activity against Meticillin-Sensitive Staphylococcus aureus assessed as bacterial growth inhibtion incubated for 24 hrs by broth microdilution method. Type of test: functional.
The test system of test [16] is Staphylococcus aureus. The test can be described thus: Antibacterial activity against Meticillin-Resistant Staphylococcus aureus assessed as bacterial growth inhibtion incubated for 24 hrs by broth microdilution method. The format is functional.

Usually IC50 stands for the concentration that inhibits the measured activity by half. With `COc1ccc2cc3[n+](cc2c1OC)CCc1cc2c(cc1-3)OCO2` [BERBERINE], the half-inhibitory concentration (IC50) in test [1] stood at 10 µM.
In general, MIC refers to the least concentration at which growth counts as inhibited. On to `CCN(CC)CCNc1nc(/C=C/c2ccc(Cl)cc2)nc2cc3ccccc3cc12`, for which the MIC with Staphylococcus aureus [2] amounted to 5 µg/mL (≈ 11.6 µM); with Staphylococcus aureus [3], 10 µg/mL (≈ 23.2 µM).
One may read the inhibition as the relative decrease from the control value, in per cent. As to `CCC(CC)c1cc(CCN2CCCN(Cc3ccc(C(F)(F)F)cc3)CC2)nc(-c2ccncc2)n1`, the minimal inhibitory concentration (MIC) in the test with Staphylococcus aureus [4] amounted to 3 µg/mL (≈ 5.86 µM); with Staphylococcus aureus [5] it was 6 µg/mL (≈ 11.7 µM). In addition, the inhibition in [6] was 20%.
Take `Cc1n(Cc2ccc(Cl)cc2)c2ccccc2[n+]1Cc1ccc(Cl)cc1`: the MIC with Staphylococcus aureus [4], in the test on Staphylococcus aureus [7], with Macrococcus caseolyticus, with Escherichia coli and with Pseudomonas aeruginosa was 5 µg/mL throughout.
As for `Cc1n(Cc2ccc(Cl)c(Cl)c2)c2ccccc2[n+]1Cc1ccc(Cl)c(Cl)c1`, the MIC with Staphylococcus aureus [4], in the test on Staphylococcus aureus [7], in the test on Macrococcus caseolyticus, in the test on Escherichia coli and in the test with Pseudomonas aeruginosa was 5 µg/mL throughout.
Turning to `Cc1nc(-c2cccs2)cc([C@H]2CN3CC[C@H]2C[C@@H]3CNC(=O)CCCC(=O)O)n1`, the MIC in the test on Staphylococcus aureus [8] was 897 µM (≈ 384 µg/mL). In test [1], the IC50 stood at 317 µM.
For `CCC(CC)c1cc([C@H]2CN3CC[C@H]2C[C@@H]3CNCc2ccc(CO)o2)nc(-c2ccncc2)n1`, the MIC with Staphylococcus aureus [8] amounted to 50.5 µM (≈ 24 µg/mL). In addition, in [1], the IC50 was determined as 77.2 µM.
As for `CCC(CC)c1cc([C@H]2CN3CC[C@H]2C[C@@H]3CNCc2ccco2)nc(-c2ccncc2)n1`, in the test on Staphylococcus aureus [8], the MIC turned out to be 26.9 µM (≈ 12 µg/mL). The IC50 in [1] was determined as 55.7 µM.
With `COc1ccc2cc3[n+](cc2c1OCCCOc1ccc(Cl)cc1)CCc1cc2c(cc1-3)OCO2.[Br-]`, the MIC in the test on Staphylococcus aureus [9] and with Staphylococcus aureus [10] was 2 µg/mL in each case.
For `Cc1ccc(/C=C/c2nc(/C=C3\Sc4ccccc4N3CCCN3CCC(C)CC3)c3ccccc3[n+]2C)cc1.[I-]`, the MIC with Staphylococcus aureus [9] and in the test with Staphylococcus aureus [10] was 2 µg/mL throughout.
For the compound `NC(=O)c1c(F)ccc(OCc2nc3cc(Cl)cnc3s2)c1F`, the MIC in the test with Staphylococcus aureus [4] and in the test on Staphylococcus aureus [5] was 1 µg/mL (≈ 2.81 µM) each time. The compound also displayed a half-inhibitory concentration (IC50) in test [11] of 0.055 µg/mL (≈ 0.155 µM).
On to `C[n+]1cc2c3c(ccc2c2ccc4cc5c(cc4c21)OCO5)OCO3` [SANGUINARIUM], for which, in [12], the IC50 was 3 µM.
Turning to `COC(=O)CSc1ccc2nsnc2c1[N+](=O)[O-]`, the MIC with Staphylococcus aureus [13] came out at 2 µg/mL (≈ 7.01 µM); with Staphylococcus aureus [14], 2 µg/mL (≈ 7.01 µM); in the test on Burkholderia cepacia, 8 µg/mL.
With `Cc1ccc(/C=C/c2nc(/C=C3\Sc4ccccc4N3C)c3ccccc3[n+]2C)cc1.[I-]`, the MIC with Staphylococcus aureus [9] and in the test on Staphylococcus aureus [10] was 2 µg/mL throughout.
Regarding `CN(C)CNC(=O)c1c(F)ccc(OCc2nc3cc(Cl)ccc3s2)c1F`, the MIC with Staphylococcus aureus [15] and in the test on Staphylococcus aureus [16] was 0.5 µg/mL (≈ 1.21 µM) in each case.
Regarding `Cc1n(Cc2ccccc2)c2ccccc2[n+]1Cc1ccc(Cl)c(Cl)c1`, the MIC with Staphylococcus aureus [4], in the test with Staphylococcus aureus [7], with Macrococcus caseolyticus, with Escherichia coli and in the test on Pseudomonas aeruginosa was 5 µg/mL throughout.
For the compound `CCC(CC)c1cc([C@H]2CN3CC[C@H]2C[C@@H]3CN)nc(-c2ccncc2)n1`, the MIC in the test with Staphylococcus aureus [8] came out at 24.6 µM (≈ 8.99 µg/mL).
